The record followed here is ChEMBL document CHEMBL3991601, “The target landscape of clinical kinase drugs” (Science, 2017).

pKd: −log10 of the molar value. Calls of active or inactive are those of the source. Bounds are passed on as bounds.

Assay [1] has as its target Serine/threonine-protein kinase B-raf (Homo sapiens, UniProt P15056).
Assay [2] concerns the target T1, Calcium/calmodulin-dependent protein kinase type IV (Homo sapiens, UniProt Q16566).
T1 sequence (Q16566 whole entry): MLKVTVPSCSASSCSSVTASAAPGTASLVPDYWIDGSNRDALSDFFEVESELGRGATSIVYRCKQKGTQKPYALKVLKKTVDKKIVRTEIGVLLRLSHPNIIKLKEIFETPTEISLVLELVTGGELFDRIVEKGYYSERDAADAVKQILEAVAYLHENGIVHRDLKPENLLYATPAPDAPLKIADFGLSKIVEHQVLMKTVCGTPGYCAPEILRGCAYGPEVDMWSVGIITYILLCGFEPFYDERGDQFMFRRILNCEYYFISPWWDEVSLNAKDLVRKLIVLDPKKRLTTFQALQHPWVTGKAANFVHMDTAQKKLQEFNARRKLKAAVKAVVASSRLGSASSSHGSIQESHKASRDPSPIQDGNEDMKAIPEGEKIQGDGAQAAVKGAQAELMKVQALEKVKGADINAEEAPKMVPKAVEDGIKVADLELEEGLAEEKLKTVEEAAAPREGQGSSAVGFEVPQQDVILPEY

The target in assay [3] is cAMP-dependent protein kinase catalytic subunit gamma (Homo sapiens, UniProt P22612).
Chain of cAMP-dependent protein kinase catalytic subunit gamma (P22612 whole entry, the tested form may be a part): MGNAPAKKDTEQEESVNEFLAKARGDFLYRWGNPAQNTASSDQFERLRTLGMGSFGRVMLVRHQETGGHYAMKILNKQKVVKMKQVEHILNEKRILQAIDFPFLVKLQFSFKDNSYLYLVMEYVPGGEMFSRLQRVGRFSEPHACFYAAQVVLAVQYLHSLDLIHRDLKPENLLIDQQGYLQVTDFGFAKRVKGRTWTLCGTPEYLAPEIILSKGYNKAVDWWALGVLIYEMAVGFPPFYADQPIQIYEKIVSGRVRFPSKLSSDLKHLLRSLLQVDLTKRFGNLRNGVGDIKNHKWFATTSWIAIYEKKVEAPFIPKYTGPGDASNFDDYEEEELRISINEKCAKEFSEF
For assay [4], the target named is T2, AarF domain-containing protein kinase 1 (Homo sapiens, UniProt Q86TW2).
T2 sequence (Q86TW2 whole entry): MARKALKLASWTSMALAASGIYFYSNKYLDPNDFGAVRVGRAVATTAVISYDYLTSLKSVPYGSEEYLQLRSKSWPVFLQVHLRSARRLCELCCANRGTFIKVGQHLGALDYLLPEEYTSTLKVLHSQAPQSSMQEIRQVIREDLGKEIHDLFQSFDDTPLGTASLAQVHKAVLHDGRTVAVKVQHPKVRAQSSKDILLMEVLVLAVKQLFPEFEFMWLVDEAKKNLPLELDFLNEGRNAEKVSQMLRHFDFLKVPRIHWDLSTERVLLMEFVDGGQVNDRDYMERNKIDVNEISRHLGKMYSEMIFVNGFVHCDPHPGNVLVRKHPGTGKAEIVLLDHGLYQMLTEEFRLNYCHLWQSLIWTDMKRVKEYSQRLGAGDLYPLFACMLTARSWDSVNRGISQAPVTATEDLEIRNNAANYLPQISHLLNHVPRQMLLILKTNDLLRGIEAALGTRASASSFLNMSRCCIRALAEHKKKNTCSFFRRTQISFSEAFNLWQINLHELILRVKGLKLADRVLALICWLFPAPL

Assay [5] deals with cAMP-dependent protein kinase type II-alpha regulatory subunit (Homo sapiens, UniProt P13861).
Chain of cAMP-dependent protein kinase type II-alpha regulatory subunit (P13861 whole entry): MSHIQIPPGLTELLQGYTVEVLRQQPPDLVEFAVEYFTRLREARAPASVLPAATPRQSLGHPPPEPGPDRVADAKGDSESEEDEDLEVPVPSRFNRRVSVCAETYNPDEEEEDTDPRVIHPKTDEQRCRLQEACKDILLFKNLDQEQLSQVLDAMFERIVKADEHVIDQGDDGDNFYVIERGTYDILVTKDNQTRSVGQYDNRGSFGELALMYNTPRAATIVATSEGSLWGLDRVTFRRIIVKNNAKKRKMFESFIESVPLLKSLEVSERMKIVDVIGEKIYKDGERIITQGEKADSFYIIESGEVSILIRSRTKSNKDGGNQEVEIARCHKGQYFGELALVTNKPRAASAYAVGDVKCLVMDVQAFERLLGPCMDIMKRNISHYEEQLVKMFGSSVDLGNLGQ
For assay [6], the target named is T3, Phenylalanine--tRNA ligase beta subunit (Homo sapiens, UniProt Q9NSD9).
T3 sequence (Q9NSD9 whole entry): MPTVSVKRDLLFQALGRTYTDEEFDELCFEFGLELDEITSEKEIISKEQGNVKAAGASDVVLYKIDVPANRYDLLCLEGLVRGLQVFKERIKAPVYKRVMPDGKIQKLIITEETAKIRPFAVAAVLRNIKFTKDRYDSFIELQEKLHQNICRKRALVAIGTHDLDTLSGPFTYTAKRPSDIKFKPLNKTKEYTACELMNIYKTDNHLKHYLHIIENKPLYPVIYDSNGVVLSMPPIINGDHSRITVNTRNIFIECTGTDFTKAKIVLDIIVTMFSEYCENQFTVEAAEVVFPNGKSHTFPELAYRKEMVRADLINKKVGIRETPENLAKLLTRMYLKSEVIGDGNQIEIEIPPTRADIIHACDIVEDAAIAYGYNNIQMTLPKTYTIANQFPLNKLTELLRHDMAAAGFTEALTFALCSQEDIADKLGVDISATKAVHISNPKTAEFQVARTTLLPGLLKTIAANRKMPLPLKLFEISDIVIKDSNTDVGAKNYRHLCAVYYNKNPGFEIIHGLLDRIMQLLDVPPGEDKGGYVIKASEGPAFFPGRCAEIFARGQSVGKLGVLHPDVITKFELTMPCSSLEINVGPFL

The target of assay [7] is Chromodomain-helicase-DNA-binding protein 4 (Homo sapiens, UniProt Q14839).
Chain of Chromodomain-helicase-DNA-binding protein 4 (Q14839 whole entry): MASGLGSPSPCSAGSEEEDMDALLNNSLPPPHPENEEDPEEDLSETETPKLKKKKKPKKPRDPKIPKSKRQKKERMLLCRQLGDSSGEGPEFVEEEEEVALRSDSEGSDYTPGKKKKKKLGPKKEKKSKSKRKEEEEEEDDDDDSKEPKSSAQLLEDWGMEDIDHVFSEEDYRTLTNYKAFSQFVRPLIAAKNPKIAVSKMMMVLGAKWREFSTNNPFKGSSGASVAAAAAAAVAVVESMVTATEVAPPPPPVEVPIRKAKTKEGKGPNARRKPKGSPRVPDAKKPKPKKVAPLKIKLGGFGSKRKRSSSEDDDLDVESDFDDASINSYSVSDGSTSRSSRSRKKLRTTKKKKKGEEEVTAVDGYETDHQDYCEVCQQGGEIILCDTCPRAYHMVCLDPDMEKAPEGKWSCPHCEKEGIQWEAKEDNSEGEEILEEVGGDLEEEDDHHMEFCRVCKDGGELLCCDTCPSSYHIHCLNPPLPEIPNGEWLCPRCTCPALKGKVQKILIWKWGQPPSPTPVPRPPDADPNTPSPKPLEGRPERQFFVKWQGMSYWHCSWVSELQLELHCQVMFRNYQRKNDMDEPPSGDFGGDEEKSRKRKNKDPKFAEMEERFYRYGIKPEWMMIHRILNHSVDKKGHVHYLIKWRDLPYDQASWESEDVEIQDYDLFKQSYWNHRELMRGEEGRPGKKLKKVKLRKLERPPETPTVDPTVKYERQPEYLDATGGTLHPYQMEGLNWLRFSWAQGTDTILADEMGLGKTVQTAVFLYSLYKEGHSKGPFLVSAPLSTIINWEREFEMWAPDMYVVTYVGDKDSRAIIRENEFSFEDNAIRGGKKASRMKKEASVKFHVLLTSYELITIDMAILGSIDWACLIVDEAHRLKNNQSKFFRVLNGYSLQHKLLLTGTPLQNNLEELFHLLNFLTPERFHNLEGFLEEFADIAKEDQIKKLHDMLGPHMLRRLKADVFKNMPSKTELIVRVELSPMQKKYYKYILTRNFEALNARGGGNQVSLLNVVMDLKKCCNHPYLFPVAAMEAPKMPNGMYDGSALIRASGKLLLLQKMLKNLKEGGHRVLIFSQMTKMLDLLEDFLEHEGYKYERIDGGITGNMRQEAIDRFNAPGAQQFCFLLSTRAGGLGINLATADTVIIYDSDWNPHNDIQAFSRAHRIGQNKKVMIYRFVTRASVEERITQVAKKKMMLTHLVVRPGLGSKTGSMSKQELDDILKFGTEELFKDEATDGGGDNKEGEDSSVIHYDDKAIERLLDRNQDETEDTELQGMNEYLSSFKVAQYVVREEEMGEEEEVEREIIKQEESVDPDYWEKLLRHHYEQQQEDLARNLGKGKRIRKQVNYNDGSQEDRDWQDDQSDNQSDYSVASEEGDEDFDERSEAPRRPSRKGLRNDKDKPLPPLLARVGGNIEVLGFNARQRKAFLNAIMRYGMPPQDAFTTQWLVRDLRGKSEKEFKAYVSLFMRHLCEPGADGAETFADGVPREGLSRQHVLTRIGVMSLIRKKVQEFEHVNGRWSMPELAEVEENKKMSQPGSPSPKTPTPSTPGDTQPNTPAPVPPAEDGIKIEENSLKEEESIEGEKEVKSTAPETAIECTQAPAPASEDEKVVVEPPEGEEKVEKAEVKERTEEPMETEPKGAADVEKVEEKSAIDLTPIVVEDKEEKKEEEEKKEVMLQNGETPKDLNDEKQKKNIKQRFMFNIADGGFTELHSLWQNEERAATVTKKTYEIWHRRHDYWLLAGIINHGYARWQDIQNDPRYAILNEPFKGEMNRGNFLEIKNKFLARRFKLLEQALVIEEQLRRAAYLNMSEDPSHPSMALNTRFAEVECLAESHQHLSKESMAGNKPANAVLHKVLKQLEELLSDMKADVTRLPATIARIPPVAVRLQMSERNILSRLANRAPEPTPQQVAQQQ
A further assay concerns the target T4, Aurora kinase A (Homo sapiens, UniProt O14965).
T4 sequence (O14965 whole entry): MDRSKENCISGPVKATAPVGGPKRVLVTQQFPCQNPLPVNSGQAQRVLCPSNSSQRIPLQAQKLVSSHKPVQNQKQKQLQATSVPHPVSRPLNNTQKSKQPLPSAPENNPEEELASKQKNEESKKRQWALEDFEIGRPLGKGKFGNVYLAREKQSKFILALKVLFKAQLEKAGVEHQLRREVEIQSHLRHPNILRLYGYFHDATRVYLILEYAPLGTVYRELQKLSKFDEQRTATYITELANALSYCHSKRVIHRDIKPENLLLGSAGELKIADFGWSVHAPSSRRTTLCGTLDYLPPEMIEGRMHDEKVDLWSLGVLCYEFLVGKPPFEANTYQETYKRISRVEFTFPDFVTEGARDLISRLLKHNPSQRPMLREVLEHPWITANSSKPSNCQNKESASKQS
Note: in the data inactive means no Kd found up to 30 µM.

Chain of Serine/threonine-protein kinase B-raf (P15056 whole entry): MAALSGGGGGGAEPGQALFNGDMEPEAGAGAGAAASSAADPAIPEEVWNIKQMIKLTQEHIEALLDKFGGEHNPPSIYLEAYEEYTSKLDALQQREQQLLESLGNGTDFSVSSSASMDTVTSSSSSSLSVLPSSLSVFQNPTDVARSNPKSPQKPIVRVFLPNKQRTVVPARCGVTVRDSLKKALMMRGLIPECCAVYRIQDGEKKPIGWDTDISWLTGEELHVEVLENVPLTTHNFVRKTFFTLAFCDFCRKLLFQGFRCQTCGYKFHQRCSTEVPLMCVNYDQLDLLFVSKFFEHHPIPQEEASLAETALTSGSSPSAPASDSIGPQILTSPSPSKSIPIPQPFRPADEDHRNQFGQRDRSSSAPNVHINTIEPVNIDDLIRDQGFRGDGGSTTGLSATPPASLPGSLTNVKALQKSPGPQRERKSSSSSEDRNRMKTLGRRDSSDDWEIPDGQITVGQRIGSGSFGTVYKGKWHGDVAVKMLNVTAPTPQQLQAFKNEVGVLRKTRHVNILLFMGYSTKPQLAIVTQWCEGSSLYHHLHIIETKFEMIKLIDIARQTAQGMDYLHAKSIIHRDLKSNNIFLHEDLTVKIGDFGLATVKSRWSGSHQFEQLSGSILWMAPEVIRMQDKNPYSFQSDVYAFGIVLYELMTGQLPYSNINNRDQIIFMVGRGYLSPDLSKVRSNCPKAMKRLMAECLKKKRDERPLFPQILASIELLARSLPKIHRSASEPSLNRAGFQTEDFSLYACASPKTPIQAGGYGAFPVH

Take `CCN(CCCOc1ccc2c(Nc3cc(CC(=O)Nc4cccc(F)c4)n[nH]3)ncnc2c1)CCOP(=O)(O)O` [BARASERTIB]: the Kd in assay [1], in assay [2], in assay [3], in assay [4], in assay [5] and in assay [6] was > 30 µM (inactive) in each case. The Kd (usually the free concentration of one partner at which half of the binding sites on the other are occupied at equilibrium, for simple one-to-one binding) in assay [7] is > 30 µM (inactive).
With `COc1cc2nccc(Oc3ccc(NC(=O)C4(C(=O)Nc5ccc(F)cc5)CC4)cc3)c2cc1OC` [CABOZANTINIB], the Kd in assay [1], in assay [2], in assay [3], in assay [4], in assay [5] and in assay [6] was > 30 µM (inactive) throughout. The Kd in assay [7] is > 30 µM (inactive).
Regarding `Cc1cc(Nc2nc(N[C@@H](C)c3ncc(F)cn3)ncc2Cl)n[nH]1` [AZD-1480], the Kd in assay [1], in assay [2], in assay [3], in assay [4], in assay [5] and in assay [6] was > 30 µM (inactive) throughout. Besides, in assay [7], the Kd is > 30 µM (inactive).
For the molecule `C=CCN(/C=C1/C(=O)O[C@H](COC)[C@@]2(C)C1=C(O)C(=O)C1=C2[C@H](OC(C)=O)C[C@]2(C)C(=O)CC[C@@H]12)CC=C` [SONOLISIB], the Kd (in assay [1]; in assay [2]; in assay [4]; on Aurora kinase A; in assay [5]; in assay [6]) was > 30 µM (inactive) throughout. In addition, in assay [3], the pKd (commonly the negative decadic logarithm of the Kd, by convention in mol/L) is 8.15.
For the molecule `Cn1cc(-c2[nH]c3cc(NC(=O)[C@H](N)C4CCCCC4)cc4c3c2C=NNC4=O)cn1`, the Kd is > 30 µM (inactive) in assay [1]; > 30 µM (inactive) in assay [2]; > 30 µM (inactive) in assay [3]; 4.5 µM (active) in assay [4]; > 30 µM (inactive) in assay [5]; > 30 µM (inactive) in assay [6]. In assay [7], the Kd is > 30 µM (inactive).
On to `CC1(COc2ccc3c(c2)ncn3-c2ccc3cccc(N4CCC(N)CC4)c3n2)COC1` [CRENOLANIB], for which the Kd (in assay [1]; in assay [2]; in assay [3]; in assay [4]; on Aurora kinase A; in assay [5]) was > 30 µM (inactive) in each case. Moreover, in assay [6], the Kd was > 30 µM (inactive).
As to `COc1cc2ncnc3c2cc1OCCCCCN(C)Cc1ccc(Br)cc1N3` [JNJ-26483327], the Kd (in assay [2]; in assay [3]; in assay [4]; on Aurora kinase A; in assay [5]; in assay [6]) was > 30 µM (inactive) throughout. In addition, in assay [7], the Kd was > 30 µM (inactive).
As to `CCOc1ccn(-c2ccc(F)cc2)c(=O)c1C(=O)Nc1ccc(Oc2ccnc(N)c2Cl)c(F)c1` [BMS-777607], the Kd (in assay [2]; in assay [3]; in assay [4]; on Aurora kinase A; in assay [5]; in assay [6]) was > 30 µM (inactive) throughout. For the same molecule, in assay [7], the Kd is > 30 µM (inactive).
In the case of `Cc1cc(-c2cc(OC(=O)c3ccccc3)ccc2Cl)cc2nnc(Nc3ccc(OCCN4CCCC4)cc3)nc12` [TG100-801], the Kd (in assay [1]; in assay [2]; in assay [3]; in assay [4]; on Aurora kinase A; in assay [5]) was > 30 µM (inactive) in each case. Further, the Kd in assay [6] is > 30 µM (inactive).
Consider `CN(c1ncccc1CNc1nc(Nc2ccc3c(c2)CC(=O)N3)ncc1C(F)(F)F)S(C)(=O)=O` [PF-00562271], for which the Kd in assay [1], in assay [2], in assay [3], in assay [4], in assay [5] and in assay [6] was > 30 µM (inactive) in each case. In addition, the Kd in assay [7] is > 30 µM (inactive).
With `NC(=O)c1ccc(N(C(N)=O)c2c(F)cccc2F)nc1-c1ccc(F)cc1F` [VX-702], the Kd (in assay [1]; in assay [2]; in assay [3]; in assay [4]; at Aurora kinase A; in assay [5]) was > 30 µM (inactive) throughout. Further, in assay [6], the Kd was > 30 µM (inactive).
For `CC(C)(O)CC(=O)NCCn1ccc2ncnc(Nc3ccc(Oc4cccc(C(F)(F)F)c4)c(Cl)c3)c21` [TAK-285], the Kd (in assay [2]; in assay [3]; in assay [4]; on Aurora kinase A; in assay [5]; in assay [6]) was > 30 µM (inactive) in each case. Besides, the Kd in assay [7] was > 30 µM (inactive).
Take `COc1cc2ncnc(Nc3ccc(O)cc3)c2cc1OC` [WHI-P131]: the Kd (in assay [2]; in assay [3]; in assay [4]; at Aurora kinase A; in assay [5]; in assay [6]) was > 30 µM (inactive) throughout. The Kd in assay [7] is > 30 µM (inactive).
With `O=S(=O)(c1cccc2c(O)nccc12)N1CCCNCC1` [HYDROXYFASUDIL], the Kd (in assay [2]; in assay [3]; in assay [4]; on Aurora kinase A; in assay [5]; in assay [6]) was > 30 µM (inactive) in each case. In addition, the Kd in assay [7] is > 30 µM (inactive).
As to `C[C@]1(O)C[C@@H](c2nc(-c3ccc4ccc(-c5ccccc5)nc4c3)c3c(N)nccn32)C1` [LINSITINIB], the Kd in assay [1], in assay [2], in assay [3], in assay [4], in assay [5] and in assay [6] was > 30 µM (inactive) in each case. Also, the Kd in assay [7] was > 30 µM (inactive).
In the case of `Cn1c(=O)n(-c2ccc(C(C)(C)C#N)cc2)c2c3cc(-c4cnc5ccccc5c4)ccc3ncc21` [DACTOLISIB], the Kd in assay [1], in assay [2], in assay [3], in assay [4], in assay [5] and in assay [6] was > 30 µM (inactive) throughout. Further, in assay [7], the Kd was > 30 µM (inactive).
